The target of this test is T1, human PAH with the R408W mutation (Homo sapiens, UniProt P00439, R408W).
T1 construct: expressed in transfected cells
T1 sequence (P00439 1-452 R408W): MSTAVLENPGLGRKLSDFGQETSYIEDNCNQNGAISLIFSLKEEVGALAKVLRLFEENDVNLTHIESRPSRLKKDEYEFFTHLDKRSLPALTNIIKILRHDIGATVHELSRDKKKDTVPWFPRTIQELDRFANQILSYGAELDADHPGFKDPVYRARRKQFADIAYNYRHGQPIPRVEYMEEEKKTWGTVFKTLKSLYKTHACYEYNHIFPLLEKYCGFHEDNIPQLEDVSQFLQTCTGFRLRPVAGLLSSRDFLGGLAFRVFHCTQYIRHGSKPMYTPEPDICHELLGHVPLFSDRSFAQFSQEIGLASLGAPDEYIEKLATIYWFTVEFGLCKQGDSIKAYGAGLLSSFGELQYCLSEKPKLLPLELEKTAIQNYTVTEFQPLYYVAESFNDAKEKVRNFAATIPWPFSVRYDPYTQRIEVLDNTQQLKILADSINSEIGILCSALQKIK
Kind of test: Cell Based Phenylalanine Flux Assay. Set-up: scale not given here. To be noted: A375 cells expressing human R408W PAH, 13C-Tyrosine by LC-MS, average where tested multiple times.

The mark [1] stands for this setting: 24 hrs compound incubation, read-out: AC50.
Setting [2] is: 24 hrs with compound, read-out: AC50.

SMILES strings stand for the structures. Read-outs that look alike come from different tables or passages of the source.

In general, AC50 refers to the midpoint of the concentration-response curve, whichever way the signal moves. Regarding `c1ccc2sc([C@H]3c4nc[nH]c4CCN3CCC3CC3)nc2c1` [Example 1275, (R)-2-(5-(2-cyclopropylethyl)-4,5,6,7-tetrahydro-1H-imidazo[4,5-c]pyridin-4-yl)benzo[d]thiazole], the AC50 under setting [1] fell in the range of 1000 to 5000 nM. The same measure, in the same setting: the same measure for `CC(C)(O)c1nc(Br)c(C(=O)N2CCc3[nH]cnc3[C@@H]2c2nc3ccccc3s2)s1` [Example 2108, (R)-(4-(benzo[d]thiazol-2-yl)-6,7-dihydro-1H-imidazo[4,5-c]pyridin-5(4H)-yl)(4-bromo-2-(2-hydroxypropan-2-yl)thiazol-5-yl)methanone]: 1000 to 5000 nM; for `Cn1cc(C(=O)N2CCc3[nH]cnc3[C@H]2c2nc3ccccc3s2)c(C(F)F)n1` [Example 1821]: under 500 nM. On to `COCc1ccc2c(C(=O)N3CCc4[nH]cnc4[C@H]3c3nc4ccccc4s3)c(C#N)nn2c1` [Example 1866, (S)-3-(4-(benzo[d]thiazol-2-yl)-4,5,6,7-tetrahydro-1H-imidazo[4,5-c]pyridine-5-carbonyl)-6-(methoxymethyl)pyrazolo[1,5-a]pyridine-2-carbonitrile], for which the concentration at half-maximal activity (AC50) under setting [1] was under 500 nM. Same read-out and setting: next, `O=C(c1cnc(-c2ccccn2)s1)N1CCc2[nH]cnc2[C@H]1c1nc2ccccc2[nH]1` [Example 989, (S)-(4-(1H-benzo[d]imidazol-2-yl)-6,7-dihydro-1H-imidazo[4,5-c]pyridin-5(4H)-yl)(2-(pyridin-2-yl)thiazol-5-yl)methanone]: 500 to 1000 nM.

`Cc1nnc(C(=O)N2CCc3[nH]cnc3[C@@H]2c2nc3c(F)cccc3s2)o1` [Example 1466, (R)-(4-(4-fluorobenzo[d]thiazol-2-yl)-6,7-dihydro-1H-imidazo[4,5-c]pyridin-5(4H)-yl)(5-methyl-1,3,4-oxadiazol-2-yl)methanone]: the concentration at half-maximal activity (AC50) under setting [1] lay in the range of 1000 to 5000 nM. As to `O=C(CCC1CC1)N1CCc2[nH]cnc2[C@@H]1c1nc2ccc(Br)cc2s1` [Example 1146, (R)-1-(4-(6-bromobenzo[d]thiazol-2-yl)-6,7-dihydro-1H-imidazo[4,5-c]pyridin-5(4H)-yl)-3-cyclopropylpropan-1-one], the half-maximal activity concentration (AC50) under setting [1] lay within 500 to 1000 nM. `O=C(c1cnc(C(F)(F)F)o1)N1CCc2[nH]cnc2[C@@H]1c1nc2c(F)cccc2s1` [Example 1402, (R)-(4-(4-fluorobenzo[d]thiazol-2-yl)-6,7-dihydro-1H-imidazo[4,5-c]pyridin-5(4H)-yl)(2-(trifluoromethyl)oxazol-5-yl)methanone]: the concentration at half-maximal activity (AC50) under setting [1] was in the range of 1000 to 5000 nM.

In the case of `O=C(c1n[nH]c2ccccc12)N1CCc2[nH]cnc2[C@@H]1c1nc2ccccc2s1` [Example 1050, (R)-(4-(benzo[d]thiazol-2-yl)-6,7-dihydro-1H-imidazo[4,5-c]pyridin-5(4H)-yl)(1H-indazol-3-yl)methanone], the AC50 under setting [1] is over 5000 nM. Same read-out and setting: next, `O=C(c1ccnn1C1CC1)N1CCc2[nH]cnc2[C@@H]1c1nc2c(F)cccc2s1` [Example 1736, (R)-(1-cyclopropyl-1H-pyrazol-5-yl)(4-(4-fluorobenzo[d]thiazol-2-yl)-6,7-dihydro-1H-imidazo[4,5-c]pyridin-5(4H)-yl)methanone]: 1000 to 5000 nM; `Cc1csc(CCC(=O)N2CCc3[nH]cnc3[C@@H]2c2nc3ccccc3s2)n1` [Example 1080, (R)-1-(4-(benzo[d]thiazol-2-yl)-6,7-dihydro-1H-imidazo[4,5-c]pyridin-5(4H)-yl)-3-(4-methylthiazol-2-yl)propan-1-one]: over 5000 nM. With `O=C(c1ccccn1)N1CCc2[nH]cnc2[C@H]1c1nc2ccccc2[nH]1` [(S)-(4-(1H-benzo[d]imidazol-2-yl)-1,4,6,7-tetrahydro-5H-imidazo[4,5-c]pyridin-5-yl)(pyridin-2-yl)methanone], the concentration at half-maximal activity (AC50) under setting [2] was in the range of 1000 to 5000 nM. `O=C(c1nnc(-c2ccccn2)o1)N1CCc2[nH]cnc2[C@@H]1c1nc2cccc(F)c2s1` [Example 1717, (R)-(4-(7-fluorobenzo[d]thiazol-2-yl)-6,7-dihydro-1H-imidazo[4,5-c]pyridin-5(4H)-yl)(5-(pyridin-2-yl)-1,3,4-oxadiazol-2-yl)methanone]: under setting [1], the AC50 lay within 500 to 1000 nM. For `Cc1nc(CC2CC2)oc1C(=O)N1CCc2[nH]cnc2[C@H]1c1nc2ccccc2s1` [Example 1399], under setting [1], the half-maximal activity concentration (AC50) was under 500 nM. On to `COCc1nc(C(F)F)c(C(=O)N2CCc3[nH]cnc3[C@H]2c2nc3ccccc3s2)o1` [Example 1807], for which the half-maximal activity concentration (AC50) under setting [1] is under 500 nM. Turning to `O=C(c1nnc(C2CC(F)(F)C2)o1)N1CCc2[nH]cnc2[C@H]1c1nc2c(F)cccc2s1` [Example 1892, (S)-(5-(3,3-difluorocyclobutyl)-1,3,4-oxadiazol-2-yl)(4-(4-fluorobenzo[d]thiazol-2-yl)-6,7-dihydro-1H-imidazo[4,5-c]pyridin-5(4H)-yl)methanone], the AC50 under setting [1] was in the range of 500 to 1000 nM. Still for that read-out and setting: the same measure for `O=C(c1ncc(Cl)s1)N1CCc2[nH]cnc2[C@H]1c1nc2c(F)cccc2s1` [Example 1219]: under 500 nM; for `CC(C)(F)c1ncc(C(=O)N2CCc3[nH]cnc3[C@H]2c2nc3ccccc3s2)o1` [Example 1455]: under 500 nM. On the same count and under the same terms, next, `O=C(CC1CC(F)C1)N1CCc2[nH]cnc2[C@H]1c1nc2ccccc2s1` (some centres unmarked) [Example 1245]: under 500 nM. As for `Cn1cc(-c2cccc(C(=O)N3CCc4[nH]cnc4C3c3nc4ccccc4s3)c2)cn1` (centres unmarked), under setting [2], the AC50 is over 5000 nM. On to `O=C(c1nnc(-c2ccccc2)o1)N1CCc2[nH]cnc2[C@@H]1c1nc2ccccc2s1` [Example 1418, (R)-(4-(benzo[d]thiazol-2-yl)-6,7-dihydro-1H-imidazo[4,5-c]pyridin-5(4H)-yl)(5-phenyl-1,3,4-oxadiazol-2-yl)methanone], for which the AC50 under setting [1] lay within 1000 to 5000 nM. The same measure, in the same setting: next, `Cc1cccc2sc([C@H]3c4nc[nH]c4CCN3C(=O)c3cncs3)nc12` [Example 1306, (R)-(4-(4-methylbenzo[d]thiazol-2-yl)-6,7-dihydro-1H-imidazo[4,5-c]pyridin-5(4H)-yl)(thiazol-5-yl)methanone]: 1000 to 5000 nM; `O=C(c1cn(CC(F)(F)F)nc1C(F)F)N1CCc2[nH]cnc2[C@@H]1c1nc2c(F)cccc2s1` [Example 1988, (R)-(3-(difluoromethyl)-1-(2,2,2-trifluoroethyl)-1H-pyrazol-4-yl)(4-(4-fluorobenzo[d]thiazol-2-yl)-6,7-dihydro-1H-imidazo[4,5-c]pyridin-5(4H)-yl)methanone]: 1000 to 5000 nM; `COCc1ncc(C(=O)N2CCc3[nH]cnc3[C@@H]2c2nc3c(F)cccc3s2)s1` [Example 1704, (R)-(4-(4-fluorobenzo[d]thiazol-2-yl)-6,7-dihydro-1H-imidazo[4,5-c]pyridin-5(4H)-yl)(2-(methoxymethyl)thiazol-5-yl)methanone]: 1000 to 5000 nM.

Consider `COCc1ccc2c(C(=O)N3CCc4[nH]cnc4[C@@H]3c3nc4ccccc4s3)cnn2c1` [Example 1310, (R)-(4-(benzo[d]thiazol-2-yl)-6,7-dihydro-1H-imidazo[4,5-c]pyridin-5(4H)-yl)(6-(methoxymethyl)pyrazolo[1,5-a]pyridin-3-yl)methanone], for which, under setting [1], the AC50 is over 5000 nM. On the same count and under the same terms, the same measure for `CC(O)c1nc(Br)c(C(=O)N2CCc3[nH]cnc3[C@H]2c2nc3c(F)cccc3s2)o1` (single isomer, unassigned) [Example 2058]: under 500 nM; for `CC1(C(=O)N2CCc3[nH]cnc3[C@@H]2c2nc3ccccc3s2)CC1(F)F` (single isomer, unassigned) [Example 1289]: 1000 to 5000 nM; for `CC(C)(C)c1ncc(C(=O)N2CCc3[nH]cnc3[C@H]2c2nc3ccccc3s2)s1` [Example 1421]: under 500 nM. As for `O=C(c1nnc(-c2cc[nH]n2)o1)N1CCc2[nH]cnc2[C@@H]1c1nc2ccccc2s1` [Example 1900, (R)-(5-(1H-pyrazol-3-yl)-1,3,4-oxadiazol-2-yl)(4-(benzo[d]thiazol-2-yl)-6,7-dihydro-1H-imidazo[4,5-c]pyridin-5(4H)-yl)methanone], the concentration at half-maximal activity (AC50) under setting [1] lay in the range of 1000 to 5000 nM. `COCc1ccc2c(C(=O)N3CCc4[nH]cnc4[C@H]3c3nc4ccccc4s3)cnn2c1` [Example 1309]: under setting [1], the half-maximal activity concentration (AC50) lay within 500 to 1000 nM. For `CC(C)(C)c1ncc(C(=O)N2CCc3[nH]cnc3[C@H]2c2nc3ccccc3s2)o1` [Example 1427], under setting [1], the AC50 was under 500 nM. In the case of `O=C(C1CC1)N1CCc2[nH]cnc2[C@H]1c1nc2cccc(F)c2s1` [Example 1259, (S)-cyclopropyl(4-(7-fluorobenzo[d]thiazol-2-yl)-6,7-dihydro-1H-imidazo[4,5-c]pyridin-5(4H)-yl)methanone], under setting [1], the half-maximal activity concentration (AC50) fell in the range of 500 to 1000 nM. Consider `O=C(c1c(C(F)F)nn2cc(Br)ccc12)N1CCc2[nH]cnc2C1c1nc2ccccc2s1` (centres unmarked), for which the AC50 entry (24 hrs with compound) is “E, E”. For `COCCn1nccc1C(=O)N1CCc2[nH]cnc2[C@H]1c1nc2c(F)cccc2s1` [Example 1723, (S)-(4-(4-fluorobenzo[d]thiazol-2-yl)-6,7-dihydro-1H-imidazo[4,5-c]pyridin-5(4H)-yl)(1-(2-methoxyethyl)-1H-pyrazol-5-yl)methanone], under setting [1], the AC50 was under 500 nM. Turning to `COCc1cc(C(=O)N2CCc3[nH]cnc3C2c2nc3c(F)cccc3s2)[nH]n1` (centres unmarked), the concentration at half-maximal activity (AC50) under setting [2] was in the range of 1000 to 5000 nM. On the same count and under the same terms, next, `O=C(c1nccs1)N1CCc2[nH]cnc2[C@H]1c1nc2ccc(Cl)cc2s1` (single isomer, unassigned): 1000 to 5000 nM; `Cc1nc(CCN2CC(F)C2)oc1C(=O)N1CCc2[nH]cnc2C1c1nc2ccccc2s1` (centres unmarked): 1000 to 5000 nM. In the case of `O=C(Cc1nccs1)N1CCc2[nH]cnc2[C@H]1c1nc2ccccc2s1` [Example 1037], the concentration at half-maximal activity (AC50) under setting [1] is 500 to 1000 nM.

Values taken from patent publication US20250171438A1 (Agios Pharmaceuticals, Inc., priority 2022, published 2025).
